Laboratory results from US10507218B2, “Treatment of cardiovascular disease by using gallium compounds to bind calcified lesions” (LIPIDRISK, LLC, priority 2018, dated 2019).

Legend:
[1] = Treatment of rheumatoid arthritis of the wrist by topical gallium nitrate solution (single patient); type: in vivo, human; details: about 100 mg
Protocol: Patient had persistent rheumatoid arthritis of the wrist for over six months and was treated with a single dose of ¾ ml of 14% gallium nitrate solution, about 100 mg, as a topical application for one hour. […] Again, the pain elimination from reduced inflammation is an indicator that the gallium ions bonded to the calcified structures at an inflammation site.

[2] = set-up: dose or concentration left out as unconfirmed; details: of gallium nitrate over 5-7 days; cited from earlier work
[3] = Treatment of plantar fasciitis by topical gallium nitrate solution (single patient); type: in vivo, human
Protocol: The patient was having continuous severe pain from the plantar fasciitis for over six months after treatments with injected cortisone, special braces and hydrotherapy none of which gave relief.
Patient was treated with 5 ml's of 14% gallium nitrate solution applied to the bottom of the affected foot for 30 minutes every other day for three treatments. After each treatment the remaining solution was washed off and the exact amount of absorbed gallium nitrate was not measured. […] The plantar fasciitis has not returned for 10 years. The pain elimination from reduced inflammation is an indicator that the gallium ions bonded to the calcified structures at an inflammation site.

[4] = animal studies; cited from earlier work

O=[N+]([O-])[O-].O=[N+]([O-])[O-].O=[N+]([O-])[O-].[Ga+3] [gallium nitrate]
immediate pain relief ([1]; single topical dose of ¾ ml of 14% gallium nitrate solution, one hour): Some pain relief was noticed immediately
arthritic pain after two months ([1]; single topical dose): the arthritic pain was not noticeable
duration without arthritic pain in the wrist ([1]; single topical dose): has not experienced arthritic pain in the wrist for two years
reduction of calcium excretion [2]: 70+18%
pain relief after each treatment ([3]; 5 ml of 14% gallium nitrate solution on bottom of affected foot, 30 minutes, every other day, three treatments): complete relief of pain for several hours after each treatment
time without return of plantar fasciitis ([3]; after three topical treatments): ≥ 10 years
pain outcome after the third treatment ([3]; one week after third topical treatment): the pain disappeared completely one week later
carbonyl oxidation and protein nitration [4]: reduction of carbonyl oxidation and protein nitration
